Reference: ChEMBL document CHEMBL5614443, “Hybrids of 3-Hydroxypyridin-4(1H)-ones and Long-Chain 4-Aminoquinolines as Potent Biofilm Inhibitors of Pseudomonas aeruginosa Potentiate Tobramycin and Polymyxin B Activity” (J Med Chem, 2024)
The source made the active and inactive calls. The rule behind the calls is not given here.

Assays:
Pseudomonas aeruginosa [1] = assay: Antibiofilm activity against Pseudomonas aeruginosa clinical isolate 0815 assessed as reduction in biofilm content at 10 uM incubated for 24 hrs by crystal violet staining based analysis; assay type: functional, organism-based
Pseudomonas aeruginosa [2] = assay: Synergistic antibacterial activity against Pseudomonas aeruginosa PAO1 assessed as fold reduction in bacterial survival rate at 50 uM incubated for 24 hrs in presence of 1/2 MIC of tobramycin by LB agar plate method relative to tobramycin alone; assay type: functional
Pseudomonas aeruginosa [3] = assay: Antibacterial activity against Pseudomonas aeruginosa PAO1 infected in Caenorhabditis elegans assessed as worm survival at 50 uM by bright-field microscopic analysis (reference value: 24 hrs); assay type: functional
Pseudomonas aeruginosa [4] = assay: Synergistic antibacterial activity against Pseudomonas aeruginosa clinical isolate 0815 assessed as reduction in bacterial viability at 10 to 50 uM incubated for 24 hrs in presence of 1/8 MIC of polymyxin B by LB agar plate method; assay type: functional, organism-based; conditions: dose 10-50 µM
Pseudomonas aeruginosa [5] = assay: Synergistic antibacterial activity against Pseudomonas aeruginosa PAO1 assessed as fold reduction in bacterial survival rate incubated for 24 hrs in presence of tetracycline by LB agar plate method; assay type: functional
Pseudomonas aeruginosa [6] = assay: Antibiofilm activity against Pseudomonas aeruginosa overexpressing fpvA assessed as inhibition of biofilm formation at 20 uM incubated for 24 hrs by crystal violet staining based analysis relative to control; assay type: functional
Pseudomonas aeruginosa [7] = assay: Synergistic antibacterial activity against Pseudomonas aeruginosa PAO1 assessed as reduction in cell viability at 10 to 50 uM incubated for 24 hrs in the presence of 1/2 MIC of tobramycin by LB agar plate method; assay type: functional, organism-based; conditions: dose 10-50 µM
Pseudomonas aeruginosa [8] = assay: Synergistic antibacterial activity against Pseudomonas aeruginosa clinical isolate 1121 assessed as reduction in bacterial viability at 10 to 50 uM incubated for 24 hrs in presence of 1/4 MIC of tobramycin by LB agar plate method; assay type: functional, organism-based; conditions: dose 10-50 µM
Pseudomonas aeruginosa [9] = assay: Antibiofilm activity against Pseudomonas aeruginosa clinical isolate 1167 assessed as reduction in biofilm content at 10 uM incubated for 24 hrs by crystal violet staining based analysis; assay type: functional, organism-based
Pseudomonas aeruginosa [10] = assay: Inhibition of motility in Pseudomonas aeruginosa PAO1 assessed as reduction in swimming movements incubated for 16 hrs by motility assay; assay type: functional, organism-based; conditions: dose 1.25-50 µM
Pseudomonas aeruginosa [11] = assay: Antibacterial activity against Pseudomonas aeruginosa PA14 assessed as inhibition of bacterial growth incubated for 24 hrs by CLSI protocol based method; assay type: functional, organism-based
Pseudomonas aeruginosa [12] = assay: Antibacterial activity against Pseudomonas aeruginosa PAO1 infected in Caenorhabditis elegans assessed as worm survival rate at 50 uM measured after 96 hrs in presence of polymyxin B at 1/2 MIC by bright field microscopic analysis relative to control; assay type: functional
[13] = Cytotoxicity against African green monkey Vero cells assessed as reduction in cell viability at 200 uM incubated for 24 hrs by MTT assay; assay type: toxicity, cell-based; conditions: chlorocebus sabaeus
Pseudomonas aeruginosa [14] = assay: Synergistic antibacterial activity against Pseudomonas aeruginosa clinical isolate 1167 assessed as reduction in bacterial viability at 10 to 50 uM incubated for 24 hrs in presence of 1/4 MIC of polymyxin B by LB agar plate method; assay type: functional, organism-based; conditions: dose 10-50 µM
Pseudomonas aeruginosa [15] = assay: Synergistic antibacterial activity against Pseudomonas aeruginosa PAO1 assessed as fold reduction in bacterial survival rate incubated for 24 hrs in presence of norfloxacin by LB agar plate method; assay type: functional
[16] = Inhibition of quorum sensing system in Pseudomonas aeruginosa PAO1 transfected with mini-ctx-lacZ reporter gene assessed as decrease in beta-galactosidase activity at 1.25 to 20 uM incubated for 6 hrs by Miller assay; conditions: dose 1.25-20 µM
Pseudomonas aeruginosa [17] = assay: Antibacterial activity against Pseudomonas aeruginosa PAO1 assessed as inhibition of bacterial growth incubated for 24 hrs by CLSI protocol based method; assay type: functional
[18] = Cytotoxicity against African green monkey Vero cells assessed as reduction in cell viability at <=100 uM incubated for 24 hrs by MTT assay; assay type: toxicity, cell-based; conditions: chlorocebus sabaeus
Pseudomonas aeruginosa [19] = assay: Antibacterial activity against Pseudomonas aeruginosa clinical isolate 1129 assessed as inhibition of bacterial growth incubated for 24 hrs by CLSI protocol based method; assay type: functional, organism-based
Pseudomonas aeruginosa [20] = assay: Synergistic antibacterial activity against Pseudomonas aeruginosa clinical isolate 1167 assessed as reduction in bacterial viability at 10 to 50 uM incubated for 24 hrs in presence of 1/8 MIC of tobramycin by LB agar plate method; assay type: functional, organism-based; conditions: dose 10-50 µM
Pseudomonas aeruginosa [21] = assay: Synergistic antibacterial activity against Pseudomonas aeruginosa clinical isolate 0815 assessed as reduction in bacterial viability at 10 to 50 uM incubated for 24 hrs in presence of 1/4 MIC of polymyxin B by LB agar plate method; assay type: functional, organism-based; conditions: dose 10-50 µM
Pseudomonas aeruginosa [22] = assay: Antibacterial activity against Pseudomonas aeruginosa clinical isolate 0807 assessed as inhibition of bacterial growth incubated for 24 hrs by CLSI protocol based method; assay type: functional, organism-based
Pseudomonas aeruginosa [23] = assay: Synergistic antibacterial activity against Pseudomonas aeruginosa PAO1 assessed as reduction in cell viability at 10 to 50 uM incubated for 24 hrs in the presence of 1/8 MIC of tobramycin by LB agar plate method; assay type: functional, organism-based; conditions: dose 10-50 µM
Pseudomonas aeruginosa [24] = assay: Antibiofilm activity against Pseudomonas aeruginosa clinical isolate 1121 assessed as reduction in biofilm content at 10 uM incubated for 24 hrs by crystal violet staining based analysis; assay type: functional, organism-based
[25] = Inhibition of quorum sensing system in wildtype Pseudomonas aeruginosa PAO1 assessed as inhibition of rhamnolipid production incubated for 24 hrs by absorbance based microtiter plate reader analysis
Pseudomonas aeruginosa [26] = assay: Synergistic antibacterial activity against Pseudomonas aeruginosa clinical isolate 1121 assessed as reduction in bacterial viability at 10 to 50 uM incubated for 24 hrs in presence of 1/8 MIC of polymyxin B by LB agar plate method; assay type: functional, organism-based; conditions: dose 10-50 µM
Pseudomonas aeruginosa [27] = assay: Antibacterial activity against Pseudomonas aeruginosa clinical isolate 1065 assessed as inhibition of bacterial growth incubated for 24 hrs by CLSI protocol based method; assay type: functional, organism-based
Pseudomonas aeruginosa [28] = assay: Induction of Fe3+ chelating activity in Pseudomonas aeruginosa PAO1 assessed as increase in pyochelin production at 2.5 to 50 uM incubated for 24 hrs by fluorescence microplate reader; conditions: dose 2.5-50 µM
Pseudomonas aeruginosa [29] = assay: Synergistic antibacterial activity against Pseudomonas aeruginosa PAO1 assessed as fold reduction in bacterial survival rate incubated for 24 hrs in presence of azithromycin by LB agar plate method; assay type: functional
Pseudomonas aeruginosa [30] = assay: Antibacterial activity against Pseudomonas aeruginosa PAO1 assessed as inhibition of bacterial growth at 0.1 to 50 uM measured upto 24 hrs by CLSI protocol based method; assay type: functional, organism-based; conditions: dose 0.1-50 µM
Pseudomonas aeruginosa [31] = assay: Synergistic antibacterial activity against Pseudomonas aeruginosa PAO1 assessed as fold reduction in bacterial survival rate incubated for 24 hrs in presence of erythromycin by LB agar plate method; assay type: functional
Pseudomonas aeruginosa [32] = assay: Synergistic antibacterial activity against Pseudomonas aeruginosa PAO1 assessed as reduction in cell viability at 10 to 50 uM incubated for 24 hrs in the presence of 1/2 MIC of polymyxin B by LB agar plate method; assay type: functional, organism-based; conditions: dose 10-50 µM
Pseudomonas aeruginosa [33] = assay: Synergistic antibacterial activity against Pseudomonas aeruginosa clinical isolate 1121 assessed as reduction in bacterial viability at 10 to 50 uM incubated for 24 hrs in presence of 1/2 MIC of polymyxin B by LB agar plate method; assay type: functional, organism-based; conditions: dose 10-50 µM
Pseudomonas aeruginosa [34] = assay: Antibacterial activity against Pseudomonas aeruginosa PAO1 infected in Caenorhabditis elegans assessed as worm survival rate at 50 uM measured after 72 hrs in presence of tobramycin at 1/2 MIC by bright field microscopic analysis relative to control; assay type: functional

For `Cc1cc(=O)c(O)c(C(=O)NCCCCCCCCNc2ccnc3cc(Cl)ccc23)n1C.Cl`, the Activity (Pseudomonas aeruginosa [1]) was “Active”, the “fold change (FC)” value (Pseudomonas aeruginosa [2]) was roughly 60 and the Survival (Pseudomonas aeruginosa [3]) was 56 h. For the same molecule, the Activity (Pseudomonas aeruginosa [4]) was “Active”, the “fold change (FC)” value (Pseudomonas aeruginosa [5]) was less than 10 and the inhibition at 20 µM (Pseudomonas aeruginosa [6]) was roughly 30%. For the same molecule, the Activity (Pseudomonas aeruginosa [7]) was “Active”, the Activity (Pseudomonas aeruginosa [8]) was “Active” and the Activity (Pseudomonas aeruginosa [9]) was “Active”. The inhibition (Pseudomonas aeruginosa [10]) was “Dose-Dependent Effect”, the Activity (Pseudomonas aeruginosa [11]) was “inactive” and the survival at 50 µM (Pseudomonas aeruginosa [12]) was 91.2%. The Activity [13] was “Toxic”, the Activity (Pseudomonas aeruginosa [14]) was “Active” and the “fold change (FC)” value (Pseudomonas aeruginosa [15]) was less than 10. For the same molecule, the inhibition [16] was “inactive”, the MIC (Pseudomonas aeruginosa [17]) was no less than 512 µM and the Activity [18] was “Non-Toxic”. The Activity (Pseudomonas aeruginosa [19]) was “inactive”, the Activity (Pseudomonas aeruginosa [20]) was “Active” and the Activity (Pseudomonas aeruginosa [21]) was “Active”. For the same molecule, the Activity (Pseudomonas aeruginosa [22]) was “inactive”, the Activity (Pseudomonas aeruginosa [23]) was “Active” and the Activity (Pseudomonas aeruginosa [24]) was “Active”. The IC50 [25] was 39.2 µM, the Activity (Pseudomonas aeruginosa [26]) was “Active” and the Activity (Pseudomonas aeruginosa [27]) was “inactive”. The Activity (Pseudomonas aeruginosa [28]) was “inactive”, the “fold change (FC)” value (Pseudomonas aeruginosa [29]) was less than 10 and the Activity (Pseudomonas aeruginosa [30]) was “inactive”. The “fold change (FC)” value (Pseudomonas aeruginosa [31]) was less than 10, the Activity (Pseudomonas aeruginosa [32]) was “Active” and the Activity (Pseudomonas aeruginosa [33]) was “Active”. For the same molecule, the survival at 50 µM (Pseudomonas aeruginosa [34]) was 81.5%.
